Here are results for three compounds from paper PMC3674995, “Safety, Pharmacokinetic, and Efficacy Studies of Oral DB868 in a First Stage Vervet Monkey Model of Human African Trypanosomiasis” (PLoS Neglected Tropical Diseases, 2013).

Data set [1] is described as follows: Metabolism of DB868 in vervet monkey liver microsomes. Type of data set: in vitro ADME. The following applies: 10 µM, 0.5 mg/mL microsomes, 1 mM NADPH, pH 7.4, up to 120 min. On the procedure:
DB868 metabolism was studied in male vervet monkey liver microsomes (custom-prepared by XenoTech, LLC, Lenexa, KS, USA) by adapting a previously published method. Briefly, incubation mixtures contained 10 µM DB868, 0.5 mg/mL monkey liver microsomes, and 3.3 mM MgCl2 in 100 mM phosphate buffer (pH 7.4). Reactions were initiated by the addition of NADPH (1 mM final concentration). Control incubations were carried out without NADPH, DB868, or liver microsomes. Aliquots (100 µL) of the reaction mixtures were removed at 0, 5, 10, 15, 30, 60 and 120 min and mixed with 100 µL of ice-cold acetonitrile. After centrifugation to pellet precipitated proteins, the supernatants were analyzed by HPLC/UV and fluorescence using the method previously described for pafuramidine (DB289) and furamidine (DB75). Metabolite identification was performed by comparing retention times to those of synthetic standards for M1 (DB1679), M2 (DB840), M3 (DB1712), and DB829. DB868 and its metabolites were quantified using a calibration curve (0.1–10 µM) generated using synthetic standards.
On the technique in general: Liver microsomes are vesicles of endoplasmic reticulum, rich in cytochrome P450 enzymes.

For a further data set, the system named is T. b. brucei GVR35. Also on record: method as in PMID 19620327. Conditions: oral administration; cited from earlier work.
In data set [2] the test system is T. b. rhodesiense STIB900. Also on record: method as in PMID 19620327. Conditions: oral administration; cited from earlier work.
On the set-up of data set [3]: method as in earlier work. The following applies: cited from earlier work.
Data set [4] has as its system T. b. rhodesiense KETRI 2537. Nature of the data set: Efficacy in first stage HAT vervet monkey model. Type of data set: in vivo. The following applies: for time to clear parasites from the blood: after the 1st drug dose. Here is the method: Monkeys that were deemed as treatment failures/relapses or developed severe adverse clinical signs as defined in the protocol (e.g., inability or reluctance to perch, less than ¼ of normal daily feed intake for 2–3 consecutive days) were immediately withdrawn from the study and humanely euthanized for post-mortem examination. These monkeys were euthanized by intravenous administration of 20% (w/v) pentobarbitone sodium solution (150 mg/kg body weight; Euthatal; Rhône-Mérieux, United Kingdom).

Data set [5] is described as follows: Pharmacokinetics in uninfected vervet monkeys. The following applies: uninfected; for concentration at 24 h / concentration at 4 h: both, monkey, po; for concentration at 24 h / concentration at 4 h / C24 h: plasma; for concentration at 24 h: C24 h; for concentration at 4 h: geometric mean C4 h, n = 4.
Data set [6] can be described thus: Safety (overt toxicity, haematology, clinical chemistry) in uninfected vervet monkeys. The following applies: for peak plasma urea relative to baseline: p<0.05; for highest post-treatment mean ALT: plasma.
Data set [7] can be described thus: Pharmacokinetics in infected vervet monkeys (first stage HAT). Format: in vivo, vervet monkey. The following applies: monkey, plasma, po, prodrug in plasma post-LDD, all oral DB868 regimens; infected; 0.04 days = 1 h; read-out: Tmax (majority, 4/6 monkeys) (converted).
Data set [8] relates to T. b. brucei s427 trypanosomes. Further details: method as in PMID 21402852. Conditions: 3.2 µM; cited from earlier work.
Where [9] appears, read: oral 3 mg/kg×7 days, monkeys 638, 643.
[10] abbreviates: after final oral dose of DB868 30 mg/kg×10 days, individual monkeys, 30 mg/kg.
Setting [11] is: oral 10 mg/kg/day×10 days, 1–2 days post-LDD.

“And” between values parts separate entries of the source, which are not always exact repeats. Identical values can stand only once. “Also recorded” adds a separate entry of the source.

Take `CONC(=N)c1ccc(-c2ccc(-c3ccc(C(=N)NOC)cn3)o2)nc1` [DB868, 2,5-bis[5-(N-methoxyamidino)-2-pyridyl]furan]: in data set [1], the metabolites formed entry was “metabolized in male vervet monkey liver microsomes to M1 (DB1679), M2 (DB840), M3 (DB1712), M4, and the active compound DB829”. Besides, the curative (in the data set on T. b. brucei GVR35; in data set [2]) was 100% each time. The “increase in ALT compared to untreated rats” value in data set [3] (female Sprague-Dawley rats, oral 25 mg/kg/day for 3 weeks) is recorded as “less than 2 fold”. In addition, the “effect on KIM-1” value in data set [3] (oral 12 mg/kg/day×28 days, entire 4-month observation period) is on record as “no effect”. Further, in [4] (oral 3 mg/kg/day for 7 days, monkey 638), the “day of dosing on which parasitologically negative” value turned out to be 6 day. In addition, the “time at which parasitologically negative” value in data set [4] (oral 3 mg/kg/day for 7 days, monkey 643) was 3 days post-LDD. Moreover, the “Trypanosomes blood/CSF at EoT” value is recorded as “Neg” in [4] (oral 3 mg/kg×7 days from 7 DPI, monkeys 638, 643); “Neg” in [4] (oral 10 mg/kg×7 days from 7 DPI, monkeys 675, 691); “Neg” in data set [4] (oral 20 mg/kg×5 days from 7 DPI, monkeys 585, 658, 686, Neg = negative, Pos = positive). For the same compound, the Final efficacy assesment entry in data set [4] (setting [9]) is on record as “Cured”. Besides, the “Provisional efficacy at 100 days post-treatment” value was “Cured” in data set [4] (setting [9]) and “Cured” in [4] (oral 10 mg/kg×7 days, monkeys 675, 691). Moreover, in data set [4] (oral 10 mg/kg/day for 7 days, monkey 675), the “time at which consistently parasitologically negative” value was determined as 7 days post-LDD. The “day of treatment on which parasitologically negative” value in data set [4] (oral 10 mg/kg/day for 7 days, monkey 691) is given as 6 day. The “day of drug administration by which trypanosomes were undetectable in blood” value in data set [4] (oral 20 mg/kg/day for 5 days, all three monkeys) is at most 4 days. Also, the “time to clear parasites from the blood” value in [4] (oral, '30 mg/kg group') is 2 to 5 days; in data set [4] (oral, lower dose regimen groups (3 and 10 mg/kg)) it was 6 to 14 days. In addition, the “time to clearance of trypanosomes from peripheral blood” value in [4] (oral, after the 1st dose, depending on the dose) was 2 to 14 days. In [4] (oral, all three regimens (3 mg/kg/day×7, 10 mg/kg/day×7, 20 mg/kg/day×5 days), treatment from 7 DPI), the “cure of infected monkeys” value is reported as “All infected monkeys were cured”. Besides, the “dose required to achieve complete cure” value in data set [4] (oral, for 7 days, first stage HAT monkey model) came out at 3 mg/kg. In addition, the “curative cumulative dose, fold lower than the maximum tolerated dose” value in data set [4] (oral, 21 mg/kg vs 300 mg/kg cumulative) is listed as 14 fold. The “AUC0-∞” value in data set [5] (setting [10]) is 200 nmol·days/L and 540 nmol·days/L and 260 nmol·days/L and 180 nmol·days/L. Besides, the AUClast in data set [5] (setting [10]) was 190 nmol·days/L and 530 nmol·days/L and 210 nmol·days/L and 170 nmol·days/L. Also, the “t1/2 (terminal elimination half-life)” value in data set [5] (setting [10]) was 0.4 day and 1 day (2×) and 1.3 day. Moreover, the concentration at 24 h in data set [5] (10 mg/kg, 24 h after final oral dose of DB868 10 mg/kg×10 days, individual monkeys, BLQ = below limit of quantitation) was determined as 6 nM; in data set [5] (30 mg/kg, 24 h after final oral dose of DB868 30 mg/kg×10 days, individual monkeys) it was 66 nM. For the same compound, the concentration at 4 h in [5] (10 mg/kg/day, oral DB868 10 mg/kg/day×10 days) turned out to be 89 nM; in data set [5] (30 mg/kg/day, oral DB868 30 mg/kg/day×10 days), 466 nM. Further, the entries for the “time for plasma concentration to decline below the limit of detection” value in [5] (oral DB868 10 mg/kg/day×10 days) and in data set [5] (oral DB868 30 mg/kg/day×10 days) were “less than 1 day post-LDD” and 1–2 days post-LDD, respectively. In data set [5] (oral DB868×10 days), the “geometric mean C4 h, 30 mg/kg group relative to 10 mg/kg group” value came out at 5.2 fold. The C4 h was 50 nmol/L and 130 nmol/L and 39 nmol/L and 250 nmol/L in data set [5] (plasma concentration at 4 h after final (10th) oral dose of DB868 10 mg/kg×10 days, individual monkeys 643, 659, 675, 677, 10 mg/kg); 330 nmol/L and 1600 nmol/L and 280 nmol/L and 320 nmol/L in data set [5] (plasma concentration at 4 h after final (10th) oral dose of DB868 30 mg/kg×10 days, individual monkeys 546, 567, 668, 679, 30 mg/kg). Also, the C24 h result is “BLQ” in [5] (24 h after final oral dose of DB868 10 mg/kg×10 days, individual monkeys, BLQ = below limit of quantitation, 10 mg/kg); 38 nmol/L and 47 nmol/L and 35 nmol/L in [5] (24 h after final oral dose of DB868 30 mg/kg×10 days, individual monkeys, 30 mg/kg). Moreover, the “transient increase of plasma urea concentrations” value in [6] (both dose groups, 1–2 days after the last drug dose) is 2–3 fold. Besides, in data set [6] (oral 10 mg/kg/day for 10 days, uninfected, n = 4), the adverse clinical signs entry is listed as “did not exhibit any adverse clinical signs”. Further, the “BUN equivalent of peak mean urea” value in data set [6] (setting [11]) was 35.9 mg/dL. In data set [6] (setting [11]), the mean creatinine concentration worked out at 72.3 µmol/L. Besides, the “mean creatinine concentration (equivalent)” value in [6] (setting [11]) came to 0.8 mg/dL. For the same compound, the “peak mean urea concentration” value in data set [6] (setting [11]) was 12.8 mmol/L. Moreover, the “peak plasma urea relative to baseline” value turned out to be 2.1 fold in data set [6] (setting [11]) and 2.7 fold in data set [6] (oral 30 mg/kg/day×10 days, 1–2 days post-LDD). The “maximum decline of mean body weight from baseline” value came to 6.2% in data set [6] (oral 10 mg/kg/day×10 days, baseline 3.2 kg±0.5) and 6.5% in data set [6] (oral 30 mg/kg/day×10 days, baseline 3.1 kg±0.3). For the same compound, the “highest post-treatment mean ALT relative to second baseline sample” value in data set [6] (oral 10 mg/kg/day×10 days, p = 0.71) is reported as 2.8 fold; in [6] (oral 30 mg/kg/day×10 days, p = 0.37), 1.3 fold. Besides, the entries for the “highest post-treatment mean ALT” value in data set [6] (oral 10 mg/kg/day×10 days) and in data set [6] (oral 30 mg/kg/day×10 days) were 31.3 IU/L and 20.5 IU/L, respectively. In data set [6] (oral 30 mg/kg/day for 10 days (cumulative 300 mg/kg), uninfected, two of four monkeys: excess mucous in stool, transient inappetance), the overt toxicity result is “mild signs of toxicity; also recorded: No significant overt toxicity”. Further, in data set [6] (oral 30 mg/kg/day×10 days, p = 0.05, returned to baseline after 24 h, judged not drug-related), the “mean white blood cell count, transient increase over baseline post-LDD” value is reported as 1.5 fold. In addition, in data set [6] (oral 10 or 30 mg/kg/day×10 days, not statistically significant (p>0.05)), the “post-dosing variations of mean plasma creatinine” value is listed as “minimal”. Besides, the “mean AST and total and direct bilirubin levels versus baseline” value in data set [6] (oral 10 or 30 mg/kg/day×10 days, p>0.05) is on record as “not statistically different from baseline values”. In data set [6] (oral 10 or 30 mg/kg/day×10 days, uninfected), the “gastrointestinal toxicity (stool, faecal occult blood tests)” value is “no notable gastrointestinal toxicity occurred”. The overall tolerability result in data set [6] (two oral regimens, 10 and 30 mg/kg/day for 10 days, uninfected) was “well tolerated”. Further, the “haematological parameters versus baseline” value in data set [6] (two treatment groups, 10 and 30 mg/kg/day×10 days, uninfected) is given as “did not vary significantly from baseline”. The Tmax in [7] was 57.6 min.
On to `N=C(N)c1ccc(OCCCCCOc2ccc(C(=N)N)cc2)cc1` [Pentamidine, reference compound], for which, in [4] (intramuscular 4 mg/kg×7 days from 7 DPI, monkeys 651, 541, 672), the “Trypanosomes blood/CSF at EoT” value was “Pos and Neg”. For the same compound, the Final efficacy assesment entry in data set [4] (intramuscular 4 mg/kg×7 days, monkeys 651, 541, 672) is recorded as “Not cured; also recorded: Cured”. The “time to clearance of trypanosomes from peripheral blood” value in data set [4] (monkey, in vivo, im, 4 mg/kg) was 2 days.
As for `N=C(N)c1ccc(-c2ccc(-c3ccc(C(=N)N)cc3)o2)cc1` [furamidine, 2,5-bis(4-amidinophenyl)furan, reference compound], the “exposure required to kill trypanosomes in culture” value in [8] is 1 h.
